Literature values as cited in patent EP3336085A1, “PROCESS AND INTERMEDIATE FOR THE PREPARATION OF 1-(4-(2-((1-(3,4-DIFLUOROPHENYL)-1H-PYRAZOL-3-YL)METHOXY)ETHYL)PIPERAZIN-1-YL)ETHANONE” (Laboratorios del Dr. Esteve S.A., priority 2016, dated 2018).
Where two headings read alike, the source gives them in different places.

Columns and labels:
[1] = target: sigma-1 (σ1) receptor (Homo sapiens, UniProt Q99720)
Chain of sigma-1 (σ1) receptor (Q99720 whole entry): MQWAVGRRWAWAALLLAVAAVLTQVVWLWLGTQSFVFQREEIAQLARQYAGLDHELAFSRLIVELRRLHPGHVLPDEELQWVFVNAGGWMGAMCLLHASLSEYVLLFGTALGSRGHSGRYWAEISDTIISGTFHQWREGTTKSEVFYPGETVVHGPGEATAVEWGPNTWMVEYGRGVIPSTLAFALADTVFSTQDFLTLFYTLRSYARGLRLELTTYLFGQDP

sigma-1 (σ1) receptor antagonist selectivity [1]: highly selective
water solubility (pH=2): very soluble
water solubility (pH=7.4): very soluble
SMILES: CC(=O)N1CCN(CCOCc2ccn(-c3ccc(F)c(F)c3)n2)CC1.Cl [1-(4-(2-((1-(3,4-difluorophenyl)-1 H-pyrazol-3-yl)methoxy)ethyl)piperazin-1-yl)ethanone hydrochloride]
